Patent US11571423B2, “Small molecule modulators of human sting” (Curadev Pharma Limited, priority 2017, dated 2023)

Molecular target: hSTING(R232) (Homo sapiens, UniProt Q86WV6, H232R)
Experiment: Luciferase reporter assay in HEK293T-hSTING-Luciferase cells, R232 (wild type) human STING
Format: cell-based
Settings: 20 hr stimulation, read-out: R232 human activity (EC50 range)
Outline: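 Clonal HEK293T cells stably expressing STING from a pUNO-1 plasmid plus an ISRE/ISG54-driven secreted luciferase reporter; 5×10^5 cells stimulated with compound for 20 hr. Supernatant luciferase read by luminescence, giving fold-induction over baseline and EC50.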

Chain of hSTING(R232) (Q86WV6 whole entry H232R): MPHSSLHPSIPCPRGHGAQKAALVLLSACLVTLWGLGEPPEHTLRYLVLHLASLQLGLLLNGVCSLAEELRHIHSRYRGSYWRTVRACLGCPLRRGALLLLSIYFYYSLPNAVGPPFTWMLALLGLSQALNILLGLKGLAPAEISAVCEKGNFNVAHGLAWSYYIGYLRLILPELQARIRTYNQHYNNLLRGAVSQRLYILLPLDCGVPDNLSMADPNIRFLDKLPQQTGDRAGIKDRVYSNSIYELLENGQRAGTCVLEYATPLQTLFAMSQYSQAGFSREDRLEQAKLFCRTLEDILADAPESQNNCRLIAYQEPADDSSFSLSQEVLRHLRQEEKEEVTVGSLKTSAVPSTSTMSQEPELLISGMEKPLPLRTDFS

## Cc1cccc(CN2C(=O)N(C)Cc3ccc(C(=O)NCc4c(F)cc(F)cc4F)cc32)c1F [Example 13, 1-(2-fluoro-3-methylbenzyl)-3-methyl-2-oxo-N-(2,4,6-trifluorobenzyl)-1,2,3,4-tetrahydroquinazoline-7-carboxamide]
  EC50: < 1000 nM

## CCN1Cc2ccc(C(=O)NCc3c(F)cc(F)cc3F)cc2N(Cc2cc(F)cc(F)c2)C1=O [Example 7, 1-(3,5-difluorobenzyl)-3-ethyl-2-oxo-N-(2,4,6-trifluorobenzyl)-1,2,3,4-tetrahydroquinazoline-7-carboxamide]
  EC50: 1000 to 10000 nM

## CC1c2ccc(C(=O)NCc3c(F)cc(F)cc3F)cc2N(Cc2ccccc2F)C(=O)N1C (centres unmarked) [Example 194, 1-(2-fluorobenzyl)-3,4-dimethyl-2-oxo-N-(2,4,6-trifluorobenzyl)-1,2,3,4-tetrahydroquinazoline-7-carboxamide]
  EC50: < 1000 nM

## Cc1nn(C)c(CN2C(=O)N(C)C(C)c3ccc(C(=O)NCc4cc5cc(F)ccc5o4)cc32)c1F (centres unmarked) [Example 224, 1-((4-fluoro-1,3-dimethyl-1H-pyrazol-5-yl)methyl)-N-((5-fluorobenzofuran-2-yl)methyl)-3,4-dimethyl-2-oxo-1,2,3,4-tetrahydroquinazoline-7-carboxamide]
  EC50: < 1000 nM

## CC1c2ccc(C(=O)NCc3c(F)cc(F)cc3F)cc2N(Cc2c(F)cccc2Br)C(=O)N1C (centres unmarked) [Example 158, 1-(2-bromo-6-fluorobenzyl)-3,4-dimethyl-2-oxo-N-(2,4,6-trifluorobenzyl)-1,2,3,4-tetrahydroquinazoline-7-carboxamide]
  EC50: < 1000 nM

## CC1c2ccc(C(=O)NCc3c(F)cc(F)cc3F)cc2N(Cc2ccccc2)C(=O)N1C (centres unmarked) [Example 192, 1-benzyl-3,4-dimethyl-2-oxo-N-(2,4,6-trifluorobenzyl)-1,2,3,4-tetrahydroquinazoline-7-carboxamide]
  EC50: < 1000 nM

## CC1c2ccc(C(=O)NCc3c(F)cc(F)cc3F)cc2N(Cc2cc(OCCO)ccc2F)C(=O)N1C (centres unmarked) [Example 233, 1-(2-fluoro-5-(2-hydroxyethoxy)benzyl)-3,4-dimethyl-2-oxo-N-(2,4,6-trifluorobenzyl)-1,2,3,4-tetrahydroquinazoline-7-carboxamide]
  EC50: < 1000 nM

## CN1Cc2ccc(C(=O)NCc3cc4ccccc4o3)cc2N(Cc2cc(F)cc(F)c2)C1=O [Example 16, N-(benzofuran-2-ylmethyl)-1-(3.5-difluorobenzyl)-3-methyl-2-oxo-1,2,3,4-tetrahydroquinazoline-7-carboxamide]
  EC50: 1000 to 10000 nM

## CC(C)N1Cc2ccc(C(=O)NCc3c(F)cc(F)cc3F)cc2N(Cc2cc(F)cc(F)c2)C1=O [Example 15, 1-(3,5-difluorobenzyl)-3-isopropyl-2-oxo-N-(2,4,6-trifluorobenzyl)-1,2,3,4-tetrahydroquinazoline-7-carboxamide]
  EC50: 1000 to 10000 nM

## CN1CCN(c2cccc(CNC(=O)c3ccc4c(c3)N(Cc3c(F)cccc3Cl)C(=O)N(C)C4)c2)CC1 [Example 31]
  EC50: > 10000 nM

## CN1Cc2ccc(C(=O)NCc3c(F)cc(F)cc3F)cc2N(Cc2c(Cl)cccc2Cl)C1=O [Example 62, l-(2,6-dichlorobenzyl)-3-methyl-2-oxo-N-(2,4,6-trifluorobenzyl)-1,2,3,4-tetrahydroquinazoline-7-carboxamide]
  EC50: 1000 to 10000 nM

## Cc1cc(CN2C(=O)N(C)Cc3ccc(C(=O)NCc4c(F)cc(F)cc4F)cc32)nn1C [Example 57, l-((l,5-dimethyl-1H-pyrazol-3-yl)methyl)-3-methyl-2-oxo-N-(2,4,6-trifluorobenzyl)-1,2,3,4-tetrahydroquinazoline-7-carboxamide]
  EC50: > 10000 nM

## C[C@H]1c2ccc(C(=O)NCc3c(F)cc(F)cc3F)cc2N(Cc2c(F)cc(OCCCN)cc2F)C(=O)N1C [Example 280, (S)-1-(4-(3-aminopropoxy)-2,6-difluorobenzyl)-3,4-dimethyl-2-oxo-N-(2,4,6-trifluorobenzyl)-1,2,3,4-tetrahydroquinazoline-7-carboxamide]
  EC50: < 1000 nM

## CN1Cc2ccc(C(=O)NCc3cc4cc(O)ccc4o3)cc2N(Cc2c(F)cccc2Cl)C1=O [Example 27, 1-(2-chloro-6-fluorobenzyl)-N-((5-hydroxybenzof uran-2-yl)methyl)-3-methyl-2-oxo-1.2,3,4-tetrahydroquin azoline-7-carboxamide]
  EC50: 1000 to 10000 nM

## CN1Cc2ncc(C(=O)NCc3c(F)cc(F)cc3F)cc2N(Cc2c(F)cccc2Cl)C1=O [Example 71, 1-(2-chloro-6-fluorobenzyl)-3-methyl-2-oxo-N-(2,4,6-trifluorobenzyl)-1,2,3,4-tetrahydropyrido[3,2-d]pyrimidine-7-carboxamide]
  EC50: 1000 to 10000 nM

## CN1Cc2ccc(C(=O)NCc3c(F)cc(F)cc3F)cc2N(Cc2ccccc2Cl)C1=O [Example 19, l-(2-chlorobenzyl)-3-methyl-2-oxo-N-(2,4,6-trifluorobenzyl)-1,2,3,4-tetrahydroquinazoline-7-carboxamide]
  EC50: 1000 to 10000 nM

## C[C@H]1c2ccc(C(=O)NCc3c(F)cc(F)cc3F)cc2N(Cc2c(F)ccc(C(N)=O)c2Cl)C(=O)N1C [Example 186, (S)-1-(3-carbamoyl-2-chloro-6-fluorobenzyl)-3,4-dimethyl-2-oxo-N-(2,4,6-trifluorobenzyl)-1,2,3,4-tetrahydroquinazoline-7-carboxamide]
  EC50: < 1000 nM

## CN1Cc2ccc(C(=O)NCc3c(F)cc(F)cc3F)cc2N(Cc2ccccc2F)C1=O [Example 12, 1-(2-fluorobenzyl)-3-methyl-2-oxo-N-(2,4,6-trifluorobenzyl)-1,2,3,4-tetrahydroquinazoline-7-carboxamide]
  EC50: < 1000 nM

## CC1c2ccc(C(=O)NCc3ccccc3)cc2N(Cc2ccccc2)C(=O)N1C (centres unmarked) [Example 214, N,1-dibenzyl-3,4-dimethyl-2-oxo-1,2,3,4-tetrahydroquinazoline-7-carboxamide]
  EC50: 1000 to 10000 nM

## C[C@H]1c2ccc(C(=O)NCc3c(F)cc(F)cc3F)cc2N(Cc2ccc(OP(=O)(O)O)cc2F)C(=O)N1C [Example 92, (S)-4-((3,4-dimethyl-2-oxo-7-((2,4,6-trifluorobenzyl)carbamoyl)-3,4-dihydroquinazolin-1(2H)-yl)methyl)-3-fluorophenyl dihydrogen phosphate]
  EC50: < 1000 nM

## CN1Cc2ccc(C(=O)NCc3cccc(-c4ncco4)c3)cc2N(Cc2c(F)cccc2Cl)C1=O [Example 25, 1-(2-chloro-6-fluorobenzyl)-3-methyl-N-(3-(oxazol-2-yl)benzyl)-2-oxo-1,2,3,4-tetrahydroquinazoline-7-carboxamide]
  EC50: > 10000 nM

## Cc1ccc(Cl)c(CN2C(=O)N(C)C(C)c3ccc(C(=O)NCc4c(F)cc(F)cc4F)cc32)c1F (centres unmarked) [Example 163, 1-(6-chloro-2-fluoro-3-methylbenzyl)-3,4-dimethyl-2-oxo-N-(2,4,6-trifluorobenzyl)-1,2,3,4-tetrahydroquinazoline-7-carboxamide]
  EC50: < 1000 nM

## CN1Cc2ccc(C(=O)NCc3ccc4occc4c3)cc2N(Cc2c(F)cccc2Cl)C1=O [Example 32, N-(benzofuran-5-ylmethyl)-1-(2-chloro-6-fluorobenzyl)-3-methyl-2-oxo-1,2,3,4-tetrahydroquinazoline-7-carboxamide]
  EC50: 1000 to 10000 nM

## C[C@H]1c2ccc(C(=O)NCc3c(F)cc(F)cc3F)cc2N(Cc2c(OP(=O)(O)O)ccc(F)c2F)C(=O)N1C [Example 99, (S)-2-((3,4-dimethyl-2-oxo-7-((2,4,6-trifluorobenzyl)carbamoyl)-3,4-dihydroquinazolin-1(2H)-yl)methyl)-3,4-difluorophenyl dihydrogen phosphate]
  EC50: 1000 to 10000 nM

## Cn1cnc(N2Cc3ccc(C(=O)NCc4c(F)cc(F)cc4F)cc3N(Cc3c(F)cccc3Cl)C2=O)c1 [Example 34, 1-(2-chloro-6-fluorobenzyl)-3-(1-methyl-1H-imidazol-4-yl)-2-oxo-N-(2,4,6-trifluorobenzyl)-1,2,3,4-tetrahydroquinazoline-7-carboxamide]
  EC50: > 10000 nM

## C[C@H]1c2ccc(C(=O)NCc3c(F)cc(F)cc3F)cc2N(Cc2cc(O)c(O)cc2F)C(=O)N1C [Example 274, (S)-1-(2-fluoro-4,5-dihydroxybenzyl)-3,4-dimethyl-2-oxo-N-(2,4,6-trifluorobenzyl)-1,2,3,4-tetrahydroquinazoline-7-carboxamide]
  EC50: 1000 to 10000 nM

## CC1c2ccc(C(=O)NCc3c(F)cc(F)cc3F)cc2N(Cc2cc(F)cc(F)c2)C(=O)N1C (centres unmarked) [Example 156, 1-(3,5-difluorobenzyl)-3,4-dimethyl-2-oxo-N-(2,4,6-trifluorobenzyl)-1,2,3,4-tetrahydroquinazoline-7-carboxamide]
  EC50: < 1000 nM

## Cc1nn(C)c(CN2C(=O)N(C)Cc3ccc(C(=O)NCc4c(F)cc(F)cc4F)cc32)c1Br [Example 67, 1-((4-bromo-1,3-dimethyl-1H-pyrazol-5-yl)methyl)-3-methyl-2-oxo-N-(2,4,6-trifluorobenzyl)-1,2,3,4-tetrahydroquinazoline-7-carboxamide]
  EC50: 1000 to 10000 nM

## CC1c2ccc(C(=O)NCc3c(F)cc(F)cc3F)cc2N(Cc2c(F)cccc2OCC(=O)O)C(=O)N1C (centres unmarked) [Example 234, 2-(2-((3,4-dimethyl-2-oxo-7-((2,4,6-trifluorobenzyl)carbamoyl)-3,4-dihydroquinazolin-1(2H)-yl)methyl)-3-fluorophenoxy)acetic acid]
  EC50: > 10000 nM

## CN1Cc2ccc(C(=O)NCc3cc4ccc(F)cc4o3)cc2N(Cc2c(F)cccc2Cl)C1=O [Example 23, 1-(2-chloro-6-fluorobenzyl)-N-((6-fluorobenzofuran-2-yl)methyl)-3-methyl-2-oxo-1,2,3,4-tetrahydroquinazoline-7-carboxamide]
  EC50: 1000 to 10000 nM

## CC1c2ccc(C(=O)NCc3c(F)cc(F)cc3F)cc2N(Cc2c(F)cccc2F)C(=O)N1C (centres unmarked) [Example 205, 1-(2,6-difluorobenzyl)-3,4-dimethyl-2-oxo-N-(2,4,6-trifluorobenzyl)-1,2,3,4-tetrahydroquinazoline-7-carboxamide]
  EC50: < 1000 nM

## CN1Cc2ncc(C(=O)NCc3c(F)cc(F)cc3F)cc2N(Cc2cc(F)cc(F)c2)C1=O [Example 72, 1-(3,5-difluorobenzyl)-3-methyl-2-oxo-N-(2,4,6-trifluorobenzyl)-1,2,3,4-tetrahydropyrido[3,2-d]pyrimidine-7-carboxamide]
  EC50: 1000 to 10000 nM
